Measured values from ChEMBL document CHEMBL3120081, “Imidazopyridazine hepatitis C virus polymerase inhibitors. Structure-activity relationship studies and the discovery of a novel, traceless prodrug mechanism” (J Med Chem, 2014).
≈ marks a conversion by molar mass, not a printed value. Each block holds one compound with its values, some of them ahead of it.

Legend:
[1] = tested on: Hepatitis C virus; experiment: Antiviral activity against Hepatitis C virus genotype 1b infected in human HuH7 cells after 48 hrs by luciferase reporter gene assay; format: functional, organism-based, Hepacivirus hominis; conditions: Huh-7, 48 h
[2] = tested on: Hepatitis C virus; experiment: Antiviral activity against Hepatitis C virus genotype 1a infected in human HuH7 cells after 48 hrs by luciferase reporter gene assay; format: functional, organism-based, Hepacivirus hominis; conditions: subtype 1a, Huh-7, 48 h
[3] = AUC in CD rat at 1000 mg/kg by LC/MS/MS analysis; format: ADME, organism-based; parameters: dose 1000 mg/kg; conditions: plasma
[4] = Oral bioavailability in beagle dog at 5 mg/kg by LC/MS/MS analysis; format: ADME, organism-based, Canis lupus familiaris; conditions: in vivo
[5] = Oral bioavailability in CD rat at 5 mg/kg by LC/MS/MS analysis; format: ADME, organism-based; conditions: in vivo
[6] = Solubility of the compound in phosphate buffered saline at pH 7.4 after 1 hr by chemiluminescence nitrogen detection assay; format: physicochemical
[7] = tested on: Hepatocyte; experiment: Half life in rat hepatocytes assessed as 5-((2-(2,3-Difluorophenyl)-5H-imidazo[4,5-d]pyridazin-5-yl)-methyl)-3-(4-propoxy-2-(trifluoromethyl)phenyl)isoxazole level; format: ADME, cell-based
[8] = Half life in blood (unknown origin) assessed as 5-((2-(2,3-Difluorophenyl)-5H-imidazo[4,5-d]pyridazin-5-yl)-methyl)-3-(4-propoxy-2-(trifluoromethyl)phenyl)isoxazole level; format: ADME, tissue-based
[9] = tested on: Hepatocyte; experiment: Stability in rat hepatocytes assessed as 5-((2-(2,3-Difluorophenyl)-5H-imidazo[4,5-d]pyridazin-5-yl)-methyl)-3-(4-propoxy-2-(trifluoromethyl)phenyl)isoxazole level at 0.5 uM by LC/MS/MS analysis; format: ADME, cell-based
[10] = Stability in rat microsomes assessed as 5-((2-(2,3-Difluorophenyl)-5H-imidazo[4,5-d]pyridazin-5-yl)-methyl)-3-(4-propoxy-2-(trifluoromethyl)phenyl)isoxazole level at 0.5 uM by LC/MS/MS analysis; format: ADME, Microsome
[11] = Stability of the compound in blood (unknown origin) assessed as 5-((2-(2,3-Difluorophenyl)-5H-imidazo[4,5-d]pyridazin-5-yl)-methyl)-3-(4-propoxy-2-(trifluoromethyl)phenyl)isoxazole level at 1 uM up to 60 mins by LC/MS/MS analysis; format: ADME, tissue-based; conditions: 1 h
[12] = Stability of the compound in water assessed as 5-((2-(2,3-Difluorophenyl)-5H-imidazo[4,5-d]pyridazin-5-yl)-methyl)-3-(4-propoxy-2-(trifluoromethyl)phenyl)isoxazole level at 1 uM at pH 7 up to 60 mins by LC/MS/MS analysis; format: physicochemical; conditions: buffer, pH 7, 1 h
[13] = Stability of the compound in water assessed as 5-((2-(2,3-Difluorophenyl)-5H-imidazo[4,5-d]pyridazin-5-yl)-methyl)-3-(4-propoxy-2-(trifluoromethyl)phenyl)isoxazole level at 1 uM at pH 2 up to 60 mins by LC/MS/MS analysis; format: physicochemical; conditions: buffer, pH 2, 1 h
[14] = tested on: Hepatocyte; experiment: Stability in rat hepatocytes at 0.5 uM by LC/MS/MS analysis; format: ADME, cell-based
[15] = Stability in rat microsomes at 0.5 uM by LC/MS/MS analysis; format: ADME, Microsome
[16] = Stability of the compound in blood (unknown origin) at 1 uM up to 60 mins by LC/MS/MS analysis; format: ADME, tissue-based; conditions: 1 h
[17] = Stability of the compound in water at 1 uM at pH 7 up to 60 mins by LC/MS/MS analysis; format: physicochemical; conditions: buffer, pH 7, 1 h
[18] = Stability of the compound in water at 1 uM at pH 2 up to 60 mins by LC/MS/MS analysis; format: physicochemical; conditions: buffer, pH 2, 1 h
[19] = AUC in CD rat at 300 mg/kg by LC/MS/MS analysis; format: ADME, organism-based; parameters: dose 300 mg/kg; conditions: plasma
[20] = AUC in CD rat at 100 mg/kg by LC/MS/MS analysis; format: ADME, organism-based; parameters: dose 100 mg/kg; conditions: plasma
[21] = AUC in CD rat at 30 mg/kg by LC/MS/MS analysis; format: ADME, organism-based; parameters: dose 30 mg/kg; conditions: plasma
[22] = AUC in CD rat at 10 mg/kg by LC/MS/MS analysis; format: ADME, organism-based; parameters: dose 10 mg/kg; conditions: plasma
[23] = Cmax in CD rat at 300 mg/kg by LC/MS/MS analysis; format: ADME, organism-based; parameters: dose 300 mg/kg; conditions: in vivo
[24] = Cmax in CD rat at 100 mg/kg by LC/MS/MS analysis; format: ADME, organism-based; parameters: dose 100 mg/kg; conditions: in vivo
[25] = Cmax in CD rat at 30 mg/kg by LC/MS/MS analysis; format: ADME, organism-based; parameters: dose 30 mg/kg; conditions: in vivo
[26] = Cmax in CD rat at 10 mg/kg by LC/MS/MS analysis; format: ADME, organism-based; parameters: dose 10 mg/kg; conditions: in vivo
[27] = Oral bioavailability in beagle dog at 1 mg/kg by LC/MS/MS analysis; format: ADME, organism-based, Canis lupus familiaris; conditions: in vivo
[28] = AUC in beagle dog at 1 mg/kg, po by LC/MS/MS analysis; format: ADME, organism-based, Canis lupus familiaris; parameters: dose 1 mg/kg, route oral; conditions: plasma
[29] = Half life in beagle dog at 1 mg/kg, iv by LC/MS/MS analysis; format: ADME, organism-based, Canis lupus familiaris; parameters: dose 1 mg/kg, route intravenous; conditions: in vivo
[30] = Volume of distribution in beagle dog at 1 mg/kg, iv by LC/MS/MS analysis; format: ADME, organism-based, Canis lupus familiaris; parameters: dose 1 mg/kg, route intravenous; conditions: in vivo
[31] = Clearance in beagle dog at 1 mg/kg, iv by LC/MS/MS analysis; format: ADME, organism-based, Canis lupus familiaris; parameters: dose 1 mg/kg, route intravenous; conditions: in vivo
[32] = Oral bioavailability in CD rat at 1 mg/kg by LC/MS/MS analysis; format: ADME, organism-based; conditions: in vivo
[33] = AUC in CD rat at 1 mg/kg, po by LC/MS/MS analysis; format: ADME, organism-based; parameters: dose 1 mg/kg, route oral; conditions: plasma
[34] = Half life in CD rat at 0.5 mg/kg, iv by LC/MS/MS analysis; format: ADME, organism-based; parameters: dose 0.5 mg/kg, route intravenous; conditions: in vivo
[35] = Volume of distribution in CD rat at 0.5 mg/kg, iv by LC/MS/MS analysis; format: ADME, organism-based; parameters: dose 0.5 mg/kg, route intravenous; conditions: in vivo
[36] = Clearance in CD rat at 0.5 mg/kg, iv by LC/MS/MS analysis; format: ADME, organism-based; parameters: dose 0.5 mg/kg, route intravenous; conditions: in vivo
[37] = Intrinsic clearance in beagle dog microsomes; format: ADME, Canis lupus familiaris, Microsome
[38] = Intrinsic clearance in CD rat microsomes; format: ADME, Microsome
[39] = biological target: Voltage-gated inwardly rectifying potassium channel KCNH2 (Homo sapiens, UniProt Q12809); experiment: Inhibition of human ERG expressed in HEK293 cells; format: cell-based
[40] = Aqueous solubility of the compound at pH 6.8; format: physicochemical
[41] = Inhibition of Hepatitis C virus genotype 1b NS3; parameters: species or system Hepatitis C virus subtype 1b
[42] = Plasma protein binding in human at 5 uM after 4 hrs by rapid equilibrium dialysis technique; format: ADME, cell-free; conditions: read-out: PPB (converted)
[43] = Inhibition of Hepatitis C virus genotype 1b NS5B; parameters: species or system Hepatitis C virus subtype 1b
[44] = Cytotoxicity against human HepG2 cells after 48 hrs by WST assay; format: cell-based
[45] = Cytotoxicity against human MT4 cells after 48 hrs by WST assay; format: cell-based
[46] = Cytotoxicity against human HuH7 cells after 48 hrs by WST assay; format: cell-based, Huh-7

Chain of Voltage-gated inwardly rectifying potassium channel KCNH2 (Q12809 whole entry): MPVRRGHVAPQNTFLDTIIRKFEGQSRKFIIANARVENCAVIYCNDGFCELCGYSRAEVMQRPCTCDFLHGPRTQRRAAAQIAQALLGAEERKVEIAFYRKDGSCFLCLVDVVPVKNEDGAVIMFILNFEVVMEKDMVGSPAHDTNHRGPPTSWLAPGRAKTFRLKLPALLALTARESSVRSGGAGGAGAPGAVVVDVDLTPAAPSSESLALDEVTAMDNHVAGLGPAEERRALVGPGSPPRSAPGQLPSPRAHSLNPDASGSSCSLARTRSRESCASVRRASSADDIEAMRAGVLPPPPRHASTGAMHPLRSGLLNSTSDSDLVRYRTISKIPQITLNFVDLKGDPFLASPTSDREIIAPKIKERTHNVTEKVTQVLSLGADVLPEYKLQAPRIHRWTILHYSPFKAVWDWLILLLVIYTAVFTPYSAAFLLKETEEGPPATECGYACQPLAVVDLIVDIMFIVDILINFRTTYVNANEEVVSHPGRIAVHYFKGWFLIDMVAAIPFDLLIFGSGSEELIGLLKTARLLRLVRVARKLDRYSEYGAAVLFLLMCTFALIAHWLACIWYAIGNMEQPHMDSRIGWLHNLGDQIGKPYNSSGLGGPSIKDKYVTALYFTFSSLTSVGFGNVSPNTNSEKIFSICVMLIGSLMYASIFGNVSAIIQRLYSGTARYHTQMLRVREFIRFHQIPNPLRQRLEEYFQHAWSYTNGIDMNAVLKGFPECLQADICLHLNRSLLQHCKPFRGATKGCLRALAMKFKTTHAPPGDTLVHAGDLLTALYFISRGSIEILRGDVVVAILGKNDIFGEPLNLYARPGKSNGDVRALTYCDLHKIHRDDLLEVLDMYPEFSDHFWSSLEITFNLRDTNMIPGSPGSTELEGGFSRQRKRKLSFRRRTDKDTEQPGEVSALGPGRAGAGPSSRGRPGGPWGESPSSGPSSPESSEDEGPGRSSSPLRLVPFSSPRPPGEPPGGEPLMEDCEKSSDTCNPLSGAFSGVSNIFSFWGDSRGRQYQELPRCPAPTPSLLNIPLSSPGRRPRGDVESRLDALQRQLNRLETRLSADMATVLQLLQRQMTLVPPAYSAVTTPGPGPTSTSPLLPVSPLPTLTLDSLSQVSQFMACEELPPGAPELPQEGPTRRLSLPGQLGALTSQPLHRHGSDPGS

Compound: CCCOc1ccc(-c2ccc(Cn3cc4nc(-c5cccc(F)c5F)nc-4cn3)nn2)c(C(F)(F)F)c1
EC50 [1]: 0.007 µM
EC50 [2]: 0.018 µM

Compound: CCCOc1ccc(-c2cc(C(C(=O)OCCCO)n3cc4nc(-c5cccc(F)c5F)nc-4cn3)on2)c(C(F)(F)F)c1 (centres undefined)
AUC [3]: 64000 ng·h/mL
bioavailability [4]: 63%
bioavailability [5]: 91%
solubility kinetic at 1 h [6]: 14 µM (≈ 8.65 µg/mL)
EC50 [1]: 0.006 µM
EC50 [2]: 0.023 µM

Compound: CCCCc1ccc(-c2cc(Cn3cc4nc(-c5cccc(F)c5F)nc-4cn3)on2)cc1
EC50 [1]: 0.01 µM
EC50 [2]: 0.08 µM

Compound: CCCOc1cnc(-c2cc(Cn3cc4nc(-c5cccc(F)c5F)nc-4cn3)on2)cn1
EC50 [1]: 0.22 µM
EC50 [2]: 1.4 µM

Compound: CCCOc1ccc(-c2cc(C(C(=O)OC)n3cc4nc(-c5cccc(F)c5F)nc-4cn3)on2)c(C(F)(F)F)c1 (centres undefined)
AUC [3]: 118000 ng·h/mL
bioavailability [4]: 51%
bioavailability [5]: 80%
solubility kinetic at 1 h [6]: 17 µM (≈ 9.75 µg/mL)
t1/2 [7]: 0.25 h
t1/2 [8]: 0.25 h
Stability [9]: Stable
Stability [10]: Stable
Stability [11]: Stable
Stability [12]: Stable
Stability [13]: Stable
EC50 [1]: 0.003 µM
EC50 [2]: 0.021 µM

Compound: CCCOc1ccc(-c2cnc(Cn3cc4nc(-c5cccc(F)c5F)nc-4cn3)nc2)c(C(F)(F)F)c1
EC50 [1]: 0.24 µM
EC50 [2]: 0.3 µM

Compound: COc1ccc(-c2cc(Cn3cc4nc(-c5cccc(F)c5F)nc-4cn3)on2)cc1
EC50 [1]: 0.09 µM
EC50 [2]: 0.3 µM

Continued, in another order:

EC50 [1]: > 50 µM
Compound: Fc1cccc(-c2nc3cnn(Cc4cc(-c5ccc(C(F)(F)F)cc5C(F)(F)F)no4)cc-3n2)c1

EC50 [1]: 52 µM
EC50 [2]: 16 µM
Compound: Fc1cccc(-c2nc3cnn(CCCc4ccc(C(F)(F)F)cc4C(F)(F)F)cc-3n2)c1F

bioavailability [4]: 12%
bioavailability [5]: 33%
solubility kinetic at 1 h [6]: 1.6 µM (≈ 0.825 µg/mL)
Stability [14]: Stable
Stability [15]: Stable
Stability [16]: Stable
Stability [17]: Stable
Stability [18]: Stable
EC50 [1]: 0.003 µM
EC50 [2]: 0.021 µM
Compound: CCCOc1ccc(-c2cc(Cn3cc4nc(-c5cccc(F)c5F)nc-4cn3)on2)c(C(F)(F)F)c1

EC50 [1]: 0.018 µM
EC50 [2]: 0.12 µM
Compound: Fc1cccc(-c2nc3cnn(Cc4ccc(-c5ccc(C(F)(F)F)cc5C(F)(F)F)cc4)cc-3n2)c1F

EC50 [1]: 0.08 µM
EC50 [2]: 0.9 µM
Compound: CC(c1cc(-c2ccc(C(F)(F)F)cc2C(F)(F)F)no1)n1cc2nc(-c3cccc(F)c3F)nc-2cn1 (racemic)

EC50 [1]: 0.11 µM
EC50 [2]: 3.7 µM
Compound: Fc1ccccc1-c1nc2cnn(Cc3cc(-c4ccc(C(F)(F)F)cc4C(F)(F)F)no3)cc-2n1

AUC [19]: 31000 ng·h/mL
AUC [20]: 102000 ng·h/mL
AUC [21]: 98000 ng·h/mL
AUC [22]: 25000 ng·h/mL
Cmax [23]: 2900 ng/mL
Cmax [24]: 7400 ng/mL
Cmax [25]: 7200 ng/mL
Cmax [26]: 1900 ng/mL
bioavailability [27]: 18.8%
AUC [28]: 2000 ng·h/mL
half-life [29]: 6.9 h
Vd [30]: 0.83 L/kg
clearance [31]: 2.7 mL/min/kg
bioavailability [32]: 109%
AUC [33]: 6300 ng·h/mL
half-life [34]: 3.1 h
Vd [35]: 0.57 L/kg
clearance [36]: 3 mL/min/kg
CLint scaled [37]: < 10 mL/min/kg
CLint scaled [38]: < 10 mL/min/kg
solubility [40]: < 0.01 µg/mL
IC50 [41]: > 50 µM
fraction unbound at 4 h, 5 µM [42]: 0.002
IC50 [43]: > 50 µM
EC50 [1]: 0.016 µM
EC50 [2]: 0.12 µM
Compound: Fc1cccc(-c2nc3cnn(Cc4cc(-c5ccc(C(F)(F)F)cc5C(F)(F)F)no4)cc-3n2)c1F
IC50 [39]: > 50.1 µM
CC50 at 48 h [44]: > 50 µM
CC50 at 48 h [45]: > 50 µM
CC50 at 48 h [46]: > 50 µM

EC50 [1]: 0.3 µM
Compound: Fc1cccc(-c2nc3cnn(Cc4cc(-c5ccc(C(F)(F)F)nc5)no4)cc-3n2)c1F
